From patent US20250235455A1, “AQUEOUS TICAGRELOR SOLUTIONS, METHOD OF MANUFACTURING AND USES” (HYLORIS DEVELOPMENTS SA, priority 2022, published 2025)
Like-named read-outs stand apart in the source and are kept apart here.

Tests used:
[1] = Dilution of a concentrated ticagrelor vial; type: physicochemical
Description: However, this was not possible with a 0.9 w/v % NaCl solution as diluent for the concentrated ticagrelor solution.

[2] = for Appearance, undiluted: 5 mg/ml; for Appearance in 5% dextrose / Appearance in NaCl 0.9%: diluted to 0.1 mg/ml
[3] = Bulk hold study, ticagrelor 8 mg/ml in 30% w/w HPβCD, phosphate buffer pH 7.5; type: physicochemical
Procedure: To investigate the impact of temperature and hold time, a new composition was prepared as per below Table 19.
In first step a phosphate buffer at pH 7.5 was prepared and the buffered solution was heated to 40° C.-45° C. HPβCD was added to the buffered solution under continuous mixing. […] It usually took 30 mins to 4 hours depending on batch size.
Then this solution was filtered through a 0.22-micron filter and packed in suitable clear or amber colored glass vials

CCCSc1nc(N[C@@H]2C[C@H]2c2ccc(F)c(F)c2)c2nnn([C@@H]3C[C@H](OCCO)[C@@H](O)[C@H]3O)c2n1 [Ticagrelor, (1S,2S,3R,5S)-3-{7-[(1R,2S)-2-(3,4-difluorophenyl)cyclopropylamino]5-(propylthio)-3H-(1,2,3)triazolo (4,5-D)pyrimidin-3-yl}-5-(2 hydroxyethoxy)cyclopentane-1,2-diol]
Clear solution on dilution ([1]; 0.9 w/v % NaCl solution as diluent): not possible | Appearance after dilution ([1]; 1 vial of 8 ml, 65 mg ticagrelor, about 3 g HPβCD, diluted with 25 ml 5 w/v % dextrose): clear solution | Appearance, undiluted ([2]; HPβCD 22.5% w/w): Turbid; clear after heating to 40 °C | Appearance, undiluted ([2]; HPβCD 25.0% w/w): Turbid; clear after heating to 40 °C | Appearance, undiluted ([2]; HPβCD 27.5% w/w): Turbid; clear after heating to 40 °C | Appearance, undiluted ([2]; HPβCD 30.0% w/w): Clear solution | Appearance, undiluted ([2]; HPβCD 32.5% w/w): Clear solution | Ticagrelor concentration possible to dissolve ([2]; HPβCD 20-40% w/w, without the use of heat): 5 to 15 mg/mL | Appearance in 5% dextrose ([2]; HPβCD 22.5% w/w): Clear solution | Appearance in NaCl 0.9% ([2]; HPβCD 22.5% w/w): Turbid | Appearance in 5% dextrose ([2]; HPβCD 25.0% w/w): Clear solution | Appearance in NaCl 0.9% ([2]; HPβCD 25.0% w/w): Turbid | Appearance in 5% dextrose ([2]; HPβCD 27.5% w/w): Clear solution | Appearance in NaCl 0.9% ([2]; HPβCD 27.5% w/w): Turbid | Appearance in 5% dextrose ([2]; HPβCD 30.0% w/w): Clear solution | Appearance in NaCl 0.9% ([2]; HPβCD 30.0% w/w): Turbid | Appearance in 5% dextrose ([2]; HPβCD 32.5% w/w): Clear solution | Appearance in NaCl 0.9% ([2]; HPβCD 32.5% w/w): Clear solution | Stability of undiluted concentrate in the refrigerator ([2]; HPβCD concentration as low as 22.5% w/w): remained stable | HPβCD required for a clear, storage stable ticagrelor solution ([2]; concentration relevant for injection or intravenous administration): At least 15 % w/w | Acetal impurity ([3]; Bulk hold 45° C., T = 1 h): 0.04% | Amine impurity ([3]; Bulk hold 45° C., T = 1 h): 0.05% | Assay Ticagrelor ([3]; Bulk hold 45° C., T = 1 h): 107.87% | Sum Impurities >0.05 ([3]; Bulk hold 45° C., T = 1 h): 0.12% | Total Impurities ([3]; Bulk hold 45° C., T = 1 h): 0.20% | Triol impurity ([3]; Bulk hold 45° C., T = 1 h): 0.04% | Unnamed impurity, relative retention time 1.33 ([3]; Bulk hold 45° C., T = 1 h): 0.07% | Acetal impurity ([3]; Bulk hold 45° C., T = 110 h): 0.04% | Amine impurity ([3]; Bulk hold 45° C., T = 110 h): 0.07% | Assay Ticagrelor ([3]; Bulk hold 45° C., T = 110 h): 109.10% | Sum Impurities >0.05 ([3]; Bulk hold 45° C., T = 110 h): 0.11% | Total Impurities ([3]; Bulk hold 45° C., T = 110 h): 0.28% | Triol impurity ([3]; Bulk hold 45° C., T = 110 h): 0.05% | Unnamed impurity, relative retention time 1.33 ([3]; Bulk hold 45° C., T = 110 h): 0.03% | Acetal impurity ([3]; Bulk hold at 30° C., T0): 0.04% | Amine impurity ([3]; Bulk hold at 30° C., T0): 0.06% | Assay Ticagrelor ([3]; Bulk hold at 30° C., T0): 105.60% | Regiomer impurity ([3]; Bulk hold at 30° C., T0): 0.00% | Sum Impurities >0.05 ([3]; Bulk hold at 30° C., T0): 0.10% | Total Impurities ([3]; Bulk hold at 30° C., T0): 0.21% | Triol impurity ([3]; Bulk hold at 30° C., T0): 0.05% | Acetal impurity ([3]; Bulk hold at 30° C., T4 W): 0.04% | Amine impurity ([3]; Bulk hold at 30° C., T4 W): 0.06% | Assay Ticagrelor ([3]; Bulk hold at 30° C., T4 W): 106.14% | Regiomer impurity ([3]; Bulk hold at 30° C., T4 W): 0.00% | Sum Impurities >0.05 ([3]; Bulk hold at 30° C., T4 W): 0.06% | Total Impurities ([3]; Bulk hold at 30° C., T4 W): 0.21% | Triol impurity ([3]; Bulk hold at 30° C., T4 W): 0.04% | Acetal impurity ([3]; sealed vials, T = 1 M, 25° C.): 0.03% | Amine impurity ([3]; sealed vials, T = 1 M, 25° C.): 0.06% | Assay Ticagrelor ([3]; sealed vials, T = 1 M, 25° C.): 107.22% | Regiomer impurity ([3]; sealed vials, T = 1 M, 25° C.): 0.03% | Sum Impurities >0.05 ([3]; sealed vials, T = 1 M, 25° C.): 0.06% | Total Impurities ([3]; sealed vials, T = 1 M, 25° C.): 0.23% | Triol impurity ([3]; sealed vials, T = 1 M, 25° C.): 0.01% | Unnamed impurity, relative retention time 1.03 ([3]; sealed vials, T = 1 M, 25° C.): 0.02% | Unnamed impurity, relative retention time 1.33 ([3]; sealed vials, T = 1 M, 25° C.): 0.03% | Acetal impurity ([3]; sealed vials, T = 1 M, 40° C.): 0.00% | Amine impurity ([3]; sealed vials, T = 1 M, 40° C.): 0.06% | Assay Ticagrelor ([3]; sealed vials, T = 1 M, 40° C.): 105.16% | Regiomer impurity ([3]; sealed vials, T = 1 M, 40° C.): 0.08% | Sum Impurities >0.05 ([3]; sealed vials, T = 1 M, 40° C.): 0.21% | Total Impurities ([3]; sealed vials, T = 1 M, 40° C.): 0.28% | Triol impurity ([3]; sealed vials, T = 1 M, 40° C.): 0.00% | Unnamed impurity, relative retention time 1.03 ([3]; sealed vials, T = 1 M, 40° C.): 0.02% | Unnamed impurity, relative retention time 1.33 ([3]; sealed vials, T = 1 M, 40° C.): 0.08%
